Laboratory results reported in patent publication US10392383B2, “3-(1H-benzo[d]imidazol-2-yl)-1H-pyrazolo[4,3-b]pyridines and therapeutic uses thereof” (Samumed, LLC, priority 2015, dated 2019).

Columns and labels:
[1] = tested on: Wnt activity (Sp5-Luc reporter, Wnt-responsive promoter) in SW480 colon carcinoma cells; test: Wnt activity screening assay: Sp5-Luc reporter gene assay in SW480 cells; assay type: cell-based; conditions: Homo sapiens, overnight incubation, 10-point curve starting from 10 μM
Outline: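 Luminescence read-out (BrightGlo) from stable Sp5-Luc SW480 cells, normalized to DMSO-only wells. Cells were treated overnight at 37° C in 1% FBS medium across a 1:3, 10-point series starting at 10 μM. EC50 from variable-slope four-parameter regression; percent inhibition at 10 μM given where EC50 >10 μM.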

IL-6 (THP-1 cells) = test: IL-6 inhibition in LPS-stimulated THP-1 monocytes (HTRF); assay type: cell-based; conditions: Homo sapiens, IL-6 HTRF; for EC50: 500 ng/mL LPS, Table 6; for inhibition at 10 µM: LPS, Table 6, read-out: percent inhibition at 10 μM (given in parentheses for EC50 >10 μM)
Outline: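 THP-1 cells in 1% FBS pre-incubated 2 h with compound (10-point 1:3 series from 10 μM, 0.1% DMSO), then stimulated with 500 ng/mL LPS for 22 h at 37 °C. IL-6 measured by HTRF 665/620 ratio, normalized to DMSO; EC50 by four-parameter fit, or % inhibition at 10 μM when EC50 >10 μM.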

SMILES	EC50 [1] [nM]	EC50 (IL-6 (THP-1 cells)) [nM]	inhibition at 10 µM (IL-6 (THP-1 cells)) [%]
Cc1cn(-c2cccc3[nH]c(-c4n[nH]c5ccc(-c6cncc(NC(=O)C7CCC7)c6)nc45)nc23)cn1 [Compound 217, N-(5-(3-(4-(4-Methyl-1H-imidazol-1-yl)-1H-benzo[d]imidazol-2-yl)-1H-pyrazolo[4,3-b]pyridin-5-yl)pyridin-3-yl)cyclobutanecarboxamide]	2840	> 10000	51.9
CN1CCN(c2cccc3[nH]c(-c4n[nH]c5ccc(-c6cncc(NC(=O)C7CCCC7)c6)nc45)nc23)CC1 [Compound 246, N-(5-(3-(4-(4-Methylpiperazin-1-yl)-1H-benzo[d]imidazol-2-yl)-1H-pyrazolo [4,3-b]pyridin-5-yl)pyridin-3-yl)cyclopentanecarboxamide]	8530	> 10000	35.7
CCCCC(=O)Nc1cncc(-c2ccc3[nH]nc(-c4nc5c(-c6cc(F)cc(NCCN(C)C)c6)cccc5[nH]4)c3n2)c1 [Compound 467, N-(5-(3-(4-(3-((2-(Dimethylamino)ethyl)amino)-5-fluorophenyl)-1H-benzo [d]imidazol-2-yl)-1H-pyrazolo[4,3-b]pyridin-5-yl)pyridin-3-yl)pentanamide]	1300	1320	
Cc1ncc(-c2ccc3[nH]nc(-c4nc5c(-c6cccc(F)c6)cccc5[nH]4)c3n2)n1C [Compound 509, 5-(1,2-Dimethyl-1H-imidazol-5-yl)-3-(4-(3-fluorophenyl)-1H-benzo[d]imidazol-2-yl)-1H-pyrazolo[4,3-b]pyridine]	160	788	
CC(C)Nc1cncc(-c2ccc3[nH]nc(-c4nc5c(-c6cc(F)cc(NCCN(C)C)c6)cccc5[nH]4)c3n2)c1 [Compound 460, N^1-(3-Fluoro-5-(2-(5-(5-(isopropylamino)pyridin-3-yl)-1H-pyrazolo[4,3-b]pyridin-3-yl)-1H-benzo[d]imidazol-4-yl)phenyl)-N^2,N^2-dimethylethane-1,2-diamine]	1050	975	
O=C(Nc1cncc(-c2ccc3[nH]nc(-c4nc5c(-c6cccs6)cccc5[nH]4)c3n2)c1)C1CC1 [Compound 356, N-(5-(3-(4-(Thiophen-2-yl)-1H-benzo[d]imidazol-2-yl)-1H-pyrazolo[4,3-b]pyridin-5-yl)pyridin-3-yl)cyclopropanecarboxamide]	3380	> 10000	25.7
O=C(Nc1cncc(-c2ccc3[nH]nc(-c4nc5ccccc5[nH]4)c3n2)c1)C1CCCCC1 [Compound 275, N-(5-(3-(1H-Benzo[d]imidazol-2-yl)-1H-pyrazolo[4,3-b]pyridin-5-yl)pyridin-3-yl) cyclohexanecarboxamide]	1980	1840	
Fc1cccc(-c2cccc3[nH]c(-c4n[nH]c5ccc(-c6cncc(OC7CCNCC7)c6)nc45)nc23)c1 [Compound 512, 3-(4-(3-Fluorophenyl)-1H-benzo[d]imidazol-2-yl)-5-(5-(piperidin-4-yloxy)pyridin-3-yl)-1H-pyrazolo[4,3-b]pyridine]	2140	1520	
c1ccc(-c2ccc3[nH]nc(-c4nc5ccccc5[nH]4)c3n2)nc1 [Compound 280, 3-(1H-Benzo[d]imidazol-2-yl)-5-(pyridin-2-yl)-1H-pyrazolo[4,3-b]pyridine]	611	72.7	
Cn1cc(-c2ccc3[nH]nc(-c4nc5c(-c6cccc(F)c6)cccc5[nH]4)c3n2)cn1 [Compound 508, 3-(4-(3-Fluorophenyl)-1H-benzo[d]imidazol-2-yl)-5-(1-methyl-1H-pyrazol-4-yl)-1H-pyrazolo[4,3-b]pyridine]	518	> 10000	0
FC1(F)CCN(Cc2cncc(-c3ccc4[nH]nc(-c5nc6c(-c7ccsc7)cccc6[nH]5)c4n3)c2)C1 [Compound 306, 5-(5-((3,3-Difluoropyrrolidin-1-yl)methyl)pyridin-3-yl)-3-(4-(thiophen-3-yl)-1H-benzo[d]imidazol-2-yl)-1H-pyrazolo[4,3-b]pyridine]	1650	4480	
CCCC(=O)Nc1cncc(-c2ccc3[nH]nc(-c4nc5c(-c6cc(F)cc(CNS(C)(=O)=O)c6)cccc5[nH]4)c3n2)c1 [Compound 493, N-(5-(3-(4-(3-Fluoro-5-(methylsulfonamidomethyl)phenyl)-1H-benzo[d]imidazol-2-yl)-1H-pyrazolo[4,3-b]pyridin-5-yl)pyridin-3-yl)butyramide]	3220	> 10000	35.3
Fc1cccc(-c2cccc3[nH]c(-c4n[nH]c5ccc(-c6cncc(OCCN7CCCC7)c6)nc45)nc23)c1 [Compound 514, 3-(4-(3-Fluorophenyl)-1H-benzo[d]imidazol-2-yl)-5-(5-(2-(pyrrolidin-1-yl)ethoxy)pyridin-3-yl)-1H-pyrazolo[4,3-b]pyridine]	1170	727	
Cc1ccncc1-c1ccc2[nH]nc(-c3nc4c(-c5ccsc5)cccc4[nH]3)c2n1 [Compound 285, 5-(4-Methylpyridin-3-yl)-3-(4-(thiophen-3-yl)-1H-benzo[d]imidazol-2-yl)-1H-pyrazolo[4,3-b]pyridine]	986	> 10000	36.3

Further lines, with some results ahead:

EC50 [1] [nM]	EC50 (IL-6 (THP-1 cells)) [nM]	SMILES	inhibition at 10 µM (IL-6 (THP-1 cells)) [%]
1030	4900	CN1CCN(c2cccc3[nH]c(-c4n[nH]c5ccc(-c6cncc(OC7CCCCC7)c6)nc45)nc23)CC1 [Compound 639, 5-(5-(Cyclohexyloxy)pyridin-3-yl)-3-(4-(4-methylpiperazin-1-yl)-1H-benzo [d]imidazol-2-yl)-1H-pyrazolo[4,3-b]pyridine]	
1340	2120	Cc1ccncc1-c1ccc2[nH]nc(-c3nc4c(-c5cc(F)cc(CNS(C)(=O)=O)c5)cccc4[nH]3)c2n1 [Compound 481, N-(3-Fluoro-5-(2-(5-(4-methylpyridin-3-yl)-1H-pyrazolo[4,3-b]pyridin-3-yl)-1H-benzo[d]imidazol-4-yl)benzyl)methanesulfonamide]	
1720	3670	CN(C)c1cncc(-c2ccc3[nH]nc(-c4nc5c(-c6cccs6)cccc5[nH]4)c3n2)c1 [Compound 343, N,N-Dimethyl-5-(3-(4-(thiophen-2-yl)-1H-benzo[d]imidazol-2-yl)-1H-pyrazolo[4,3-b]pyridin-5-yl)pyridin-3-amine]	
4110	> 10000	Cc1cn(-c2cccc3[nH]c(-c4n[nH]c5ccc(-c6cncc(CN7CCCC7)c6)nc45)nc23)cn1 [Compound 210, 3-(4-(4-Methyl-1H-imidazol-1-yl)-1H-benzo[d]imidazol-2-yl)-5-(5-(pyrrolidin-1-ylmethyl)pyridin-3-yl)-1H-pyrazolo[4,3-b]pyridine]	33.2
923	> 10000	COc1cncc(-c2ccc3[nH]nc(-c4nc5c(-c6cccc(F)c6)cccc5[nH]4)c3n2)c1 [Compound 516, 3-(4-(3-Fluorophenyl)-1H-benzo[d]imidazol-2-yl)-5-(5-methoxypyridin-3-yl)-1H-pyrazolo[4,3-b]pyridine]	49.5
3550	2500	CC(C)(C)CC(=O)Nc1cncc(-c2ccc3[nH]nc(-c4nc5ccccc5[nH]4)c3n2)c1 [Compound 268, N-(5-(3-(1H-Benzo[d]imidazol-2-yl)-1H-pyrazolo[4,3-b]pyridin-5-yl)pyridin-3-yl)-3,3-dimethylbutanamide]	
4670	7380	CN(C)CCOc1cncc(-c2ccc3[nH]nc(-c4nc5c(-c6cccc(F)c6)cccc5[nH]4)c3n2)c1 [Compound 515, 2-((5-(3-(4-(3-Fluorophenyl)-1H-benzo[d]imidazol-2-yl)-1H-pyrazolo[4,3-b]pyridin-5-yl)pyridin-3-yl)oxy)-N,N-dimethylethan-1-amine]	
4100	> 10000	CN(C)Cc1cncc(-c2ccc3[nH]nc(-c4nc5c(-c6cccs6)cccc5[nH]4)c3n2)c1 [Compound 349, N,N-dimethyl-1-(5-(3-(4-(thiophen-2-yl)-1H-benzo[d]imidazol-2-yl)-1H-pyrazolo[4,3-b]pyridin-5-yl)pyridin-3-yl)methanamine]	14.5
779	9500	CN(C)c1cncc(-c2ccc3[nH]nc(-c4nc5c(-c6cccc(F)c6)cccc5[nH]4)c3n2)c1 [Compound 7, 5-(3-(4-(3-fluorophenyl)-1H-benzo[d]imidazol-2-yl)-1H-pyrazolo[4,3-b]pyridin-5-yl)-N,N-dimethylpyridin-3-amine]	
3250	> 10000	CCNCc1cncc(-c2ccc3[nH]nc(-c4nc5c(-c6ccoc6)cccc5[nH]4)c3n2)c1 [Compound 314, N-((5-(3-(4-(Furan-3-yl)-1H-benzo[d]imidazol-2-yl)-1H-pyrazolo[4,3-b]pyridin-5-yl)pyridin-3-yl)methyl)ethanamine]	15.6
5480	> 10000	c1cncc(-c2ccc3[nH]nc(-c4nc5ccccc5[nH]4)c3n2)c1 [Compound 256, 3-(1H-Benzo[d]imidazol-2-yl)-5-(pyridin-3-yl)-1H-pyrazolo[4,3-b]pyridine]	0
3910	> 10000	FC1(F)CCN(Cc2cncc(-c3ccc4[nH]nc(-c5nc6c(N7CCCCC7)cccc6[nH]5)c4n3)c2)C1 [Compound 194, 5-(5-((3,3-Difluoropyrrolidin-1-yl)methyl)pyridin-3-yl)-3-(4-(piperidin-1-yl)-1H-benzo[d]imidazol-2-yl)-1H-pyrazolo[4,3-b]pyridine]	46.9
